Active and inactive are the calls of the source. The calls are words filed in the database; no cut-off is given here.
Assays:
Right cardiac atrium [1] = experiment: Antiarrhythmic activity in guinea pig right atrium assessed as inhibition of ouabain-induced arrhythmia; assay type: functional, Cavia porcellus
Right cardiac atrium [2] = experiment: Negative inotropic activity in guinea pig right atrium assessed as contractile force at MEC after 30 mins; assay type: functional, tissue-based; settings: Cavia porcellus
[3] = Apparent dissociation constant, pKa of the compound; assay type: physicochemical
[4] = 1-octanol-phosphate buffer apparent partition coefficient, log P of the compound at pH 7.4; assay type: physicochemical
[5] = Local anesthetic activity in desheathed frog sciatic nerve; assay type: functional, tissue-based, Anura
Right cardiac atrium [6] = experiment: Negative chronotropic activity in guinea pig right atrium assessed as atrial rate at MEC after 30 mins; assay type: functional, tissue-based; settings: Cavia porcellus
[7] = molecular target: Beta-2 adrenergic receptor (Cavia porcellus, UniProt Q8K4Z4); experiment: Antagonist activity at beta-2 adrenergic receptor in guinea pig tracheal strip assessed as inhibition of isoprenaline-induced effect; settings: read-out: pA2 (converted)
Beta-2 adrenergic receptor, sequence (Q8K4Z4 whole entry): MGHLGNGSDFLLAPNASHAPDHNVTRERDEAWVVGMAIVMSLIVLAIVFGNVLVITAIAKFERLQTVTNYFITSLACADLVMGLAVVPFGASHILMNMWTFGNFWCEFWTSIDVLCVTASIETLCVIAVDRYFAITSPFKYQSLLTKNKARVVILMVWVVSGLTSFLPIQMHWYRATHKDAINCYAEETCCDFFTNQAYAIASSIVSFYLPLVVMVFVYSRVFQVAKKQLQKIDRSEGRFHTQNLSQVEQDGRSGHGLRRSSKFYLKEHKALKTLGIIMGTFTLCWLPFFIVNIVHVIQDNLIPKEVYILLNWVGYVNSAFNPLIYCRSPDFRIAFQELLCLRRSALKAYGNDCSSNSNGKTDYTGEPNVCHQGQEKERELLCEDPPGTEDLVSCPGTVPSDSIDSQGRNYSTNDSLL

[8] = molecular target: Beta-1 adrenergic receptor (Cavia porcellus, UniProt H0W3H1); experiment: Antagonist activity at […] adrenergic receptor in guinea pig right atrium assessed as inhibition of isoprenaline-induced effect; design: species or system Cardiac atrium
Beta-1 adrenergic receptor, sequence (H0W3H1 1-470): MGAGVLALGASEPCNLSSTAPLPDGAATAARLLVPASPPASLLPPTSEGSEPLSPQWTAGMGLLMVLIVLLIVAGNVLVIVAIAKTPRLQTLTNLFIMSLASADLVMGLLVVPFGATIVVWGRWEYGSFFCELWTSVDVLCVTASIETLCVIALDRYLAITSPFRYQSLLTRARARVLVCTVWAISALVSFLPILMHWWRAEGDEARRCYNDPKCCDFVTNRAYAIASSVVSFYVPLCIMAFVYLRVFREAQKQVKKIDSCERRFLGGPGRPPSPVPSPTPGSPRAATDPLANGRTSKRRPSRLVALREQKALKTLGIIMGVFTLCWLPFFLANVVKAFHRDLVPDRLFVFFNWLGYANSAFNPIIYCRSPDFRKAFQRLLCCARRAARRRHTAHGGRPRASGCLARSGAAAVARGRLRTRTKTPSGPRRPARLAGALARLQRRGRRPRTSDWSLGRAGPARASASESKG

Row | Structure (SMILES) | -logMIC (Right cardiac atrium [1]) | Activity (Right cardiac atrium [2]) | pKa [3] | logD [4] | pEC50 [5] | Activity (Right cardiac atrium [6]) | Kb [7] | pA2 [8]
1 | Cc1cccc(OCC(O)CNC(C)C)c1OCC(O)CNC(C)C.Cl (stereo not drawn) | 4.7 | Active | 9.23 | -1.17 | 1.8 | Active | – | –
2 | CC(C)NCC(O)COc1cccc(C(C)C)c1OCC(O)CNC(C)C.Cl (stereo not drawn) | 5 | Active | 9.24 | -0.747 | 2 | Active | – | –
3 | CC(C)NCC(O)COc1ccc(C(C)C)cc1OCC(O)CNC(C)C.Cl (stereo not drawn) | 4.7 | Active | 9.3 | -0.833 | 2.07 | Active | – | –
4 | Cc1ccc(OCC(O)CNC(C)C)c(OCC(O)CNC(C)C)c1.Cl (stereo not drawn) | 4.3 | Active | 9.24 | -1.16 | 1.69 | Active | – | –
5 | CC(C)NCC(O)COc1cccc2ccccc12 (stereo not drawn) | – | Active | – | – | – | Active | – | –
6 | CC(C)NCC(O)COc1cc2c(cc1OCC(O)CNC(C)C)CCCC2 (stereo not drawn) | 5 | Active | 9.17 | -0.726 | 2.02 | Active | 129 nM | 5.83
7 | CC(C)NCC(O)COc1cc2ccccc2cc1OCC(O)CNC(C)C.Cl (stereo not drawn) | 5.3 | Active | 9.18 | -0.81 | 2.2 | Active | 158 nM | 5.45
8 | CC(C)NCC(O)COc1ccccc1OCC(O)CNC(C)C (stereo not drawn) | 3.7 | Active | 9.22 | -1.19 | 1.29 | Active | – | –

Source: ChEMBL document CHEMBL3272054, “Beta-adrenoceptor studies. 2. Effects of alkyl substitution on beta-adrenoceptor blocking, antiarrhythmic, and local anesthetic activities of 1,1'-(o-phenylenedioxy)bis(3-isopropylamino-2-propanol)” (J Med Chem, 1977)
